{"source": "patent US20240027453A1", "about": "“METHOD FOR DETECTION AND QUANTITATIVE MONITORING OF INFECTIONS WITH HERPESVIRUSES” (The Trustees of Princeton University, priority 2020, published 2024)", "tested_on": "HCMV", "format": "cell-based", "settings": "for UL36 (P16767) protein, numerical value of heatmap FIG. 6C / UL37 (P16778) protein, numerical value of heatmap FIG. 6C / UL122 (P19893) protein, numerical value of heatmap FIG. 6C / UL123 (P13202) protein, numerical value of heatmap FIG. 6C / IRS1 (P09715) protein, numerical value of heatmap FIG. 6C / TRS1 (P09695) protein, numerical value of heatmap FIG. 6C / UL13 (P16755) protein, numerical value of heatmap FIG. 6C: IE", "description": "In example herpesvirus PRM assay methods shown herein, cell pellets were lysed in 2% SDS, 100 mM NaCl, 0.5 mM EDTA, 50 mM Tris, pH 8.2, and 50 μg of protein was reduced and alkylated with 25 mM TCEP and 50 mM CAM respectively for 20 min at 70° C. Proteins were then precipitated via methanol chloroform precipitation (Wessel & Flugg, Anal Biochem. 138(1):141-143, 1984), resuspended in 50 mM HEPES, pH 8.2 and digested overnight with trypsin (50:1 protein:enzyme w/w ratio). Digested peptides were desalted by SDB-RPS StageTip as previously described (Lum et al., Cell Syst., 7(6):[…], 2018; Greco et al., Methods Mol Biol 1410:39-63, 2016; Federspiel & Cristea, Methods Mol Biol., 1977:115-143, 2019).\nPeptides (1.0 μg on column) were analyzed by LC-MS/MS using a Dionex Ultimate 3000 UHPLC coupled online to an EASYSpray ion source and a Q Exactive HF. Peptides were separated on an EASYSpray C18 column (75 μm×25 cm) heated to 50° C. using a linear gradient of 5% B to 32% B over 60 min at a flow rate of 250 nL/min and were ionized at 1.7 kv. Mobile phase A consisted of 0.1% FA in H2O and mobile phase B consisted of 0.1% FA, 2.9% H2O in ACN.\nThe PRM method was controlled by a peptide inclusion list with retention time windows of 6 min for selected precursor ions.\nThe PRM assay was developed and analyzed using the open-source software Skyline (Maclean et al., Bioinformatics 26(7):966-968, 2010). Summed area under the curve of 3-4 transitions per peptide was used for quantitation. Targeted peptides were normalized to host protein loading control peptides. Peptide values for each sample were scaled to the average of each peptide across all runs. The average of multiple peptides was used as the inferred value for the protein measurement when more than one peptide was quantified (Federspiel et al., PLoS Biol. 17(9):e3000437. Doi: 10.1371/journal.pbio.3000437). PRM quantitation data were graphed using the Python Seaborn and Matplotlib libraries.\nMRC5 primary human fibroblasts (HFs) (ATCC CCL-171) were used as the model system for HSV-1 and HCMV infections and were cultured in complete growth medium (DMEM supplemented with 10% fetal bovine serum and 1% penicillin-streptomycin antibiotics) at 37° C. and 5% CO2. iSLK.219 cells harboring latent KSHV (a gift from Dr. Britt Glaunsinger, University of California, Berkeley) were grown in complete growth medium supplemented with 500 μg/ml hygromycin (ThermoFisher Scientific, 10687010) at 37° C. and 5% CO2. All cells were used for experiments within a maximum of 10 passages.\nWild type HSV-1 strain 17+ (a gift from Beate Sodeik, Hannover Medical School, Hannover, Germany) was propagated as previously described (Diner et al., 2015). Briefly, PO stocks were generated by electroporating pBAC-HSV-1 into U-2 OS cells. […] In a similar manner, wild type HCMV strain AD169 was produced from BAC electroporation into HFs and working stocks were propagated by infecting HFs at a low level. In both cases, cell-associated virus was released by sonication, combined with supernatant virus, then concentrated by ultracentrifugation (20,000 rpm, 2 hours, 4° C. with SW28 swinging bucket rotor [Beckman Coulter]) over a 10% ficoll (HSV-1) or 20% sorbitol (HCMV) cushion. Virus stock titers were determined by plaque assay for HSV-1 or tissue culture infectious dose (TCID50) for HCMV and infections were performed at a multiplicity of infection (MOI) of 3.\n12 hours prior to virus infection or reactivation, cells were treated with either the small molecule drug or DMSO/PBS control at an equivalent volume. […] For infection cycles lasting longer than 24 hours, small molecule drugs were re-added to the cell culture medium every 24 hours. Upon collection, cells were rinsed with PBS, scraped into a microcentrifuge tube, pelleted by centrifugation, and rinsed again with PBS.", "note": "Read-outs that look alike come from different tables or passages of the source.", "data": [{"compound": "Nc1ccn(C[C@@H](CO)OCP(=O)(O)O)c(=O)n1", "note": "[CDV, cidofovir]", "values": [{"measurement": "UL36 (P16767) protein, numerical value of heatmap FIG. 6C", "setting": "timepoint 48", "result": 0.9304}, {"measurement": "UL37 (P16778) protein, numerical value of heatmap FIG. 6C", "setting": "timepoint 48", "result": 0.8657}, {"measurement": "UL122 (P19893) protein, numerical value of heatmap FIG. 6C", "setting": "timepoint 48", "result": 0.07563}, {"measurement": "UL123 (P13202) protein, numerical value of heatmap FIG. 6C", "setting": "timepoint 48", "result": 0.8515}, {"measurement": "IRS1 (P09715) protein, numerical value of heatmap FIG. 6C", "setting": "timepoint 72", "result": 1.017}, {"measurement": "TRS1 (P09695) protein, numerical value of heatmap FIG. 6C", "setting": "timepoint 72", "result": 0.9014}, {"measurement": "UL13 (P16755) protein, numerical value of heatmap FIG. 6C", "setting": "timepoint 72", "result": 0.8575}, {"measurement": "UL36 (P16767) protein, numerical value of heatmap FIG. 6C", "setting": "timepoint 72", "result": 0.8818}, {"measurement": "UL37 (P16778) protein, numerical value of heatmap FIG. 6C", "setting": "timepoint 72", "result": 1.038}, {"measurement": "UL122 (P19893) protein, numerical value of heatmap FIG. 6C", "setting": "timepoint 72", "result": 0.3738}, {"measurement": "UL123 (P13202) protein, numerical value of heatmap FIG. 6C", "setting": "timepoint 72", "result": 0.7924}, {"measurement": "IRS1 (P09715) protein, numerical value of heatmap FIG. 6C", "setting": "timepoint 96", "result": 0.9536}, {"measurement": "TRS1 (P09695) protein, numerical value of heatmap FIG. 6C", "setting": "timepoint 96", "result": 0.7893}, {"measurement": "UL13 (P16755) protein, numerical value of heatmap FIG. 6C", "setting": "timepoint 96", "result": 0.7965}, {"measurement": "UL36 (P16767) protein, numerical value of heatmap FIG. 6C", "setting": "timepoint 96", "result": 0.834}, {"measurement": "UL37 (P16778) protein, numerical value of heatmap FIG. 6C", "setting": "timepoint 96", "result": 0.936}, {"measurement": "UL122 (P19893) protein, numerical value of heatmap FIG. 6C", "setting": "timepoint 96", "result": 0.8676}, {"measurement": "UL123 (P13202) protein, numerical value of heatmap FIG. 6C", "setting": "timepoint 96", "result": 0.7732}, {"measurement": "IRS1 (P09715) protein, numerical value of heatmap FIG. 6C", "setting": "timepoint 120", "result": 1.003}, {"measurement": "TRS1 (P09695) protein, numerical value of heatmap FIG. 6C", "setting": "timepoint 120", "result": 1.103}, {"measurement": "UL13 (P16755) protein, numerical value of heatmap FIG. 6C", "setting": "timepoint 120", "result": 1.075}, {"measurement": "UL36 (P16767) protein, numerical value of heatmap FIG. 6C", "setting": "timepoint 120", "result": 1.234}, {"measurement": "UL37 (P16778) protein, numerical value of heatmap FIG. 6C", "setting": "timepoint 120", "result": 1.212}, {"measurement": "UL122 (P19893) protein, numerical value of heatmap FIG. 6C", "setting": "timepoint 120", "result": 1.141}, {"measurement": "UL123 (P13202) protein, numerical value of heatmap FIG. 6C", "setting": "timepoint 120", "result": 1.074}, {"measurement": "MCP (P16729) protein, numerical value of heatmap FIG. 6C", "setting": "L, timepoint 24", "result": 0.009303}, {"measurement": "UL25 (P16761) protein, numerical value of heatmap FIG. 6C", "setting": "L, timepoint 24", "result": 0.02316}, {"measurement": "UL29 (P16764) protein, numerical value of heatmap FIG. 6C", "setting": "L, timepoint 24", "result": 0.4352}, {"measurement": "UL31 (P16848) protein, numerical value of heatmap FIG. 6C", "setting": "L, timepoint 24", "result": 0.2632}, {"measurement": "UL43 (P16781) protein, numerical value of heatmap FIG. 6C", "setting": "L, timepoint 24", "result": 0.06898}, {"measurement": "UL52 (P16793) protein, numerical value of heatmap FIG. 6C", "setting": "L, timepoint 24", "result": 0.01391}, {"measurement": "UL80 (P16753) protein, numerical value of heatmap FIG. 6C", "setting": "L, timepoint 24", "result": 0.007269}, {"measurement": "UL82 (P06726) protein, numerical value of heatmap FIG. 6C", "setting": "L, timepoint 24", "result": 0.2135}, {"measurement": "UL94 (P16800) protein, numerical value of heatmap FIG. 6C", "setting": "L, timepoint 24", "result": 0.03193}, {"measurement": "UL99 (P13200) protein, numerical value of heatmap FIG. 6C", "setting": "L, timepoint 24", "result": 0.01797}, {"measurement": "UL103 (P16734) protein, numerical value of heatmap FIG. 6C", "setting": "L, timepoint 24", "result": 0.236}, {"measurement": "UL117 (P16770) protein, numerical value of heatmap FIG. 6C", "setting": "L, timepoint 24", "result": 0.1983}, {"measurement": "gH (P12824) protein, numerical value of heatmap FIG. 6C", "setting": "L, timepoint 24", "result": 0.03303}, {"measurement": "gL (P16832) protein, numerical value of heatmap FIG. 6C", "setting": "L, timepoint 24", "result": 0.03204}, {"measurement": "gM (P16733) protein, numerical value of heatmap FIG. 6C", "setting": "L, timepoint 24", "result": 0.0224}, {"measurement": "sp|P16809|IR11_HCMVA (P16809) protein, numerical value of heatmap FIG. 6C", "setting": "L, timepoint 24", "result": 0.04109}, {"measurement": "CVC1 (P16799) protein, numerical value of heatmap FIG. 6C", "setting": "L, timepoint 48", "result": 0.1142}, {"measurement": "MCP (P16729) protein, numerical value of heatmap FIG. 6C", "setting": "L, timepoint 48", "result": 0.01444}, {"measurement": "TRM2 (P16792) protein, numerical value of heatmap FIG. 6C", "setting": "L, timepoint 48", "result": 0.0613}, {"measurement": "UL22A (P16845) protein, numerical value of heatmap FIG. 6C", "setting": "L, timepoint 48", "result": 0.07025}, {"measurement": "UL25 (P16761) protein, numerical value of heatmap FIG. 6C", "setting": "L, timepoint 48", "result": 0.06426}, {"measurement": "UL29 (P16764) protein, numerical value of heatmap FIG. 6C", "setting": "L, timepoint 48", "result": 0.6305}, {"measurement": "UL31 (P16848) protein, numerical value of heatmap FIG. 6C", "setting": "L, timepoint 48", "result": 0.2379}, {"measurement": "UL43 (P16781) protein, numerical value of heatmap FIG. 6C", "setting": "L, timepoint 48", "result": 0.09529}, {"measurement": "UL52 (P16793) protein, numerical value of heatmap FIG. 6C", "setting": "L, timepoint 48", "result": 0.08671}, {"measurement": "UL80 (P16753) protein, numerical value of heatmap FIG. 6C", "setting": "L, timepoint 48", "result": 0.04081}]}]}
